{"source": "patent US6391324B1", "about": "“Cosmetic skin care compositions containing pulegone” (Unilever Home & Personal Care USA, Division of Conopco, priority 2000, dated 2002)", "assay_type_in_all_cases": "cell-based", "key": {"human keratinocytes [1]": {"system": "human keratinocytes", "experiment": "Lipid Analysis (ceramides expression)", "details": "for CERAMIDES % of CONTROL / CERAMIDES (ng/μg PROTEIN ± S.D.): three days", "protocol": "(§1) Normal human keratinocytes, isolated from neonatal foreskin by trypsin treatment, were grown in Dulbecco's Modified Eagle's Medium (DMEM, Life Technologies, Grand Island, N.Y.) with 10% fetal bovine serum in the presence of irradiated mouse fibroblasts for establishing dividing keratinocyte colonies. Cells were incubated until their second passage and stored at −70° C. for future use. All incubations took place at 37° C. with 5% CO2. Frozen second passage keratinocytes were thawed and plated in T-175 flasks (Corning, Corning, N.Y.) with DMEM and grown for five days. After reaching 80% confluence, they were trypsinized and seeded into 6-well plates containing keratinocyte growth medium (KGM, Clonetics, San Diego, Calif.) with 0.15 mM calcium.\nA sample of the keratinocytes that were grown in the keratinocyte culture described above were placed in KGM (2 ml per well) at 0.2 million per 6-well plates and re-grown for five days until approximately 20% confluence was reached. Cells were fed and treated with pulegone as described above for the TG-1 Assay. After three days of treatment, cells were rinsed twice with PBS, then harvested by adding 3 ml of 0.1 N NaOH (Fisher) to each well and scraping with a rubber policeman. The supernatants were transferred to 16 mm×100 mm glass test tubes with teflon-coated caps and incubated for 1 hour at 70° C. After cooling to room temperature, a 50 μl aliquot was removed for protein determination (Pierce BCA assay, Rockford, Ill.). To each tube 320 μl of 1 N HCl and 2.5 ml of chloroform were added and the tubes mixed well. The tubes were then placed on a tumbler and agitated for thirty minutes. The mixtures were then centrifuged for 10 minutes at 2000×g. 2 mL of chloroform were removed from the organic phase and placed in an autosampler vial. The samples were then dried evaporated under N2, resuspended in 60 μl of chloroform:methanol 2:1 and transferred to an autosampler insert microtube which was placed inside another autosampler vial whcih was sealed. 40 μl of the sample was spotted (Camag Automatic TLC Sampler III, Wilmington, N.C.) on silica TLC plates (Whatman 4807-700) and the plates were developed in horizontal chambers (Camag) using the following solvent system: 1. 95:4.5:0.5 chloroform, methanol, acetic acid and 2. 60:40:2 hexane, ethyl ether, acetic acid. Following immersion in 10% copper sulfate in 8% phosphoric acid, plates were charred at 165° C. for 20 minutes and then read in a densitometer (Camag TLC Scanner II). The results were expressed in ng cermaides/μg protein.\n(§2) Concentrations used in the examples below are of pulegone in a corn oil droplet. The in vitro concentration may not be relevant to in vivo concentration because there is partitioning between the oil and the culture medium. The medium concentration of the active is not the oil droplet concentration of the active. For the pulegone to elicit its effect on the cultured cells, it must diffuse out of the corn oil into the culture medium where it is then accessible to the cells. The pulegone concentration in the culture medium is therefore considerably less than the concentration in the corn oil droplet."}, "human keratinocytes [2]": {"system": "human keratinocytes", "experiment": "Glucose Uptake Assay (3H 2-deoxy-glucose)", "details": "for GLUCOSE UPTAKE % of CONTROL / GLUCOSE UPTAKE (cpm/μg PROTEIN ± S.D.): 4 hours preincubation", "protocol": "as §1\nA sample of the keratinocytes grown in the keratinocyte culture described above, were plated in KGM medium at either 0.5 or 1 million cells/plate in six well plates and incubated for 4 days. The medium was then aspirated, and the wells were rinsed twice with Phosphate Buffered Saline (PBS), then the plates were incubated (1 mL/well) for 24 hours. The medium was replaced with fresh KBM, 10 μl of corn oil containing pulegone at various concentrations were added and cells were allowed to incubate (for 4 hours at 37° C.) before 2 μCi of ^3H 2-deoxy-glucose (Amersham, UK) were added to each well. Samples were then incubated for one hour. The medium was aspirated and wells were rinsed three times with PBS before the addition of 500 μL of 0.1N NaOH/well. After 10 minutes of agitation on a shaker, a 25 μL aliquot was removed for protein analysis, and 200 μL were transferred to a scintillation vial containing 5 mL Scintillation cocktail (Scintiverse) and counting was performed on a Beckman counter. ^3H-Glucose uptake results were expressed as CPM/μg protein.\nas §2"}, "human keratinocytes [3]": {"system": "human keratinocytes", "experiment": "Transglutaminase (TG-1) Assay", "details": "for TG-1/DNA % of CONTROL / TG-1/DNA (Absorbance/Arbitrary Units of DNA ± Standard Deviation): three days", "protocol": "as §1\nA sample of the keratinocytes grown in the keratinocyte culture described above, were placed in KGM (2 ml per well) at 0.2 million cells/plate in 6-well plates and re-grown for five days until the cells reached approximately […], since TG-1 only begins to become expressed after confluence. […] One set of triplicate wells was left untreated to serve as control. After three days of incubation, cells were washed thoroughly with phosphate buffered saline (PBS, 10 mM sodium phosphate, 138 mM sodium chloride, 2.7 mM potassium chloride, pH 7.4) and placed at −70° C. for 2 hours. Cells were then thawed for two hours. The DNA content of cells was quantified by using the DNA-binding fluorophore, bis-benzimidazole (Hoechst 33258) and measuring the specific fluorescence of the DNA-bound fluorophore (360 nm excitation, 450 nm emission). Cellular TG-1 levels were determined by using a transglutaminase-1 (TG-1) specific monoclonal antibody as the primary antibody (BC1, Amersham, UK) and a peroxidase labeled rabbit antimouse IgG as the secondary antibody (Amersham, UK). The plates were blocked at room temperature with 5% nonfat milk in Tris-buffered saline (TBS, 10 mM Tris, 150 mM NaCL, pH 8.0) for one hour followed by two hours incubation with the primary antibody (1:4000 dilution) in 1% milk/TBS at room temperature. After rinsing the plates three times with 1% milk/TBS containing 0.05% Tween 20 (Bio-Rad, Hercules, Calif.), the plates were incubated with a 1:4000 dilution of the secondary antibody at room temperature for two hours. The plates were then rinsed three times with 1% milk/0.05% Tween 20/TBS and three times with PBS. Color was developed by incubation with o-phenylene-diamine (Sigma, St. Louis, Mo.) and hydrogen peroxide (Sigma) dissolved in a 1:1 mixture of 0.2 M dibasic sodium phosphate (Sigma) and 0.1 M citric acid at pH 5.0(Sigma). Solutions were transferred to 4 mL plastic cuvets (Fisher Scientific, Pittsburgh, Pa.) and the absorbance was read at 492 nm on an Ultraspec 3000 spectrophotometer (Pharmacia, Piscataway, N.J.) and TG-1 levels were expressed as absorbence/DNA fluoroscence.\nas §2"}, "[4]": {"details": "pulegone 1% in corn oil droplet"}, "[5]": {"details": "pulegone 2.5% in corn oil droplet"}, "[6]": {"details": "pulegone 5% in corn oil droplet"}}}
{"compound": "CC(C)=C1CCC(C)CC1=O", "note": "(stereo not shown) [Pulegone, 5-Methyl-2-(1-methylethylidene)cyclohexanone]", "values": [{"measurement": "CERAMIDES % of CONTROL", "setting": "human keratinocytes [1]; [4]", "value": 65, "unit": "%"}, {"measurement": "CERAMIDES (ng/μg PROTEIN ± S.D.)", "setting": "human keratinocytes [1]; [4]", "value": "8.97 ± 1.17", "unit": "ng/μg PROTEIN"}, {"measurement": "CERAMIDES % of CONTROL", "setting": "human keratinocytes [1]; [5]", "value": 171, "unit": "%"}, {"measurement": "CERAMIDES (ng/μg PROTEIN ± S.D.)", "setting": "human keratinocytes [1]; [5]", "value": "23.8 ± 11.0", "unit": "ng/μg PROTEIN"}, {"measurement": "CERAMIDES % of CONTROL", "setting": "human keratinocytes [1]; [6]", "value": 308, "unit": "%"}, {"measurement": "CERAMIDES (ng/μg PROTEIN ± S.D.)", "setting": "human keratinocytes [1]; [6]", "value": "42.8 ± 6.91", "unit": "ng/μg PROTEIN"}, {"measurement": "expression of ceramides in comparison to untreated keratinocytes", "setting": "human keratinocytes [1]; pulegone in corn oil", "value": "increased expression of ceramides"}, {"measurement": "GLUCOSE UPTAKE % of CONTROL", "setting": "human keratinocytes [2]; [4]", "value": 77, "unit": "%"}, {"measurement": "GLUCOSE UPTAKE (cpm/μg PROTEIN ± S.D.)", "setting": "human keratinocytes [2]; [4]", "value": "3.71 ± 0.35", "unit": "cpm/μg PROTEIN"}, {"measurement": "GLUCOSE UPTAKE % of CONTROL", "setting": "human keratinocytes [2]; [6]", "value": 189, "unit": "%"}, {"measurement": "GLUCOSE UPTAKE (cpm/μg PROTEIN ± S.D.)", "setting": "human keratinocytes [2]; [6]", "value": "9.14 ± 0.69", "unit": "cpm/μg PROTEIN"}, {"measurement": "glucose uptake", "setting": "human keratinocytes [2]; pulegone in corn oil", "value": "significantly increased glucose uptake"}, {"measurement": "TG-1/DNA % of CONTROL", "setting": "human keratinocytes [3]; [4]", "value": 121, "unit": "%"}, {"measurement": "TG-1/DNA (Absorbance/Arbitrary Units of DNA ± Standard Deviation)", "setting": "human keratinocytes [3]; [4]", "value": "15.45 ± 2.32 Absorbance/Arbitrary Units of"}, {"measurement": "TG-1/DNA % of CONTROL", "setting": "human keratinocytes [3]; [5]", "value": 196, "unit": "%"}, {"measurement": "TG-1/DNA (Absorbance/Arbitrary Units of DNA ± Standard Deviation)", "setting": "human keratinocytes [3]; [5]", "value": "24.96 ± 4.85 Absorbance/Arbitrary Units of"}, {"measurement": "TG-1/DNA % of CONTROL", "setting": "human keratinocytes [3]; [6]", "value": 286, "unit": "%"}, {"measurement": "TG-1/DNA (Absorbance/Arbitrary Units of DNA ± Standard Deviation)", "setting": "human keratinocytes [3]; [6]", "value": "36.40 ± 0.89 Absorbance/Arbitrary Units of"}, {"measurement": "transglutaminase-1 expression in comparison to untreated keratinocytes", "setting": "human keratinocytes [3]; pulegone at 2.5% and 5% in corn oil", "value": "increased transglutaminase-1 expression"}]}
